Experiments:
[1] = test system: 1af (DNA, aptamer) ACCTGGGGGAGTATTGCGGAGGAAGGT; experiment: elution from ATP-agarose column; conditions: 300 mM Na+, 5 mM Mg2+; 20 mM MOPS pH 7.4; 3 mM GMP; no elution of aptamer from immobilised ATP
[2] = test system: 1bf (DNA, aptamer, artificial imidazole 2'-deoxyribonucleoside (Im) replacing C at 3 and G at 25 (Im:Im mispair)) ACCTGGGGGAGTATTGCGGAGGAAGGT; experiment: elution from ATP-agarose column; conditions: 300 mM Na+, 5 mM Mg2+; 20 mM MOPS pH 7.4; 3 mM GMP; no elution of aptamer from immobilised ATP
[3] = test system: 1cf (DNA, aptamer, artificial imidazole 2'-deoxyribonucleoside (Im) replacing T at 4 and A at 24 (Im:Im mispair)) ACCTGGGGGAGTATTGCGGAGGAAGGT; experiment: elution from ATP-agarose column; conditions: 300 mM Na+, 5 mM Mg2+; 20 mM MOPS pH 7.4; 3 mM GMP; no elution of aptamer from immobilised ATP
[4] = test system: 1df (DNA, aptamer, artificial imidazole 2'-deoxyribonucleoside (Im) replacing G at 11 and C at 17 (Im:Im mispair)) ACCTGGGGGAGTATTGCGGAGGAAGGT; experiment: elution from ATP-agarose column; conditions: 300 mM Na+, 5 mM Mg2+; 20 mM MOPS pH 7.4; 3 mM GMP; no elution of aptamer from immobilised ATP
[5] = test system: 1af (DNA, aptamer) ACCTGGGGGAGTATTGCGGAGGAAGGT; experiment: fluorescence, structure-switching strand displacement; conditions: 300 mM Na+, 5 mM Mg2+; 20 mM MOPS pH 7.4, 22 °C; 1 mM AMP; DABCYL strand 1q displaced
[6] = test system: 1bf (DNA, aptamer, artificial imidazole 2'-deoxyribonucleoside (Im) replacing C at 3 and G at 25 (Im:Im mispair)) ACCTGGGGGAGTATTGCGGAGGAAGGT; experiment: as above; conditions: 300 mM Na+, 5 mM Mg2+; 20 mM MOPS pH 7.4, 22 °C; 1 mM AMP; DABCYL strand 1q displaced
[7] = test system: 1cf (DNA, aptamer, artificial imidazole 2'-deoxyribonucleoside (Im) replacing T at 4 and A at 24 (Im:Im mispair)) ACCTGGGGGAGTATTGCGGAGGAAGGT; experiment: as above; conditions: 300 mM Na+, 5 mM Mg2+; 20 mM MOPS pH 7.4, 22 °C; 1 mM AMP; DABCYL strand 1q displaced
[8] = test system: 1df (DNA, aptamer, artificial imidazole 2'-deoxyribonucleoside (Im) replacing G at 11 and C at 17 (Im:Im mispair)) ACCTGGGGGAGTATTGCGGAGGAAGGT; experiment: as above; conditions: 300 mM Na+, 5 mM Mg2+; 20 mM MOPS pH 7.4, 22 °C; 1 mM AMP; DABCYL strand 1q displaced
[9] = test system: 1a (DNA, aptamer) ACCTGGGGGAGTATTGCGGAGGAAGGT; experiment: fluorescence, structure-switching strand displacement (system B); conditions: 300 mM Na+, 5 mM Mg2+; 20 mM MOPS pH 8.1, 22 °C; 1 mM AMP; strands 2f (fluorescein) and 2q (DABCYL) displaced

SMILES | binding [1] | binding [2] | binding [3] | binding [4] | binding [5] | binding [6] | binding [7] | binding [8] | binding [9]
Nc1nc2c(ncn2[C@@H]2O[C@H](COP(=O)(O)O)[C@@H](O)[C@H]2O)c(=O)[nH]1 | no | no | no | no | – | – | – | – | –
Nc1ncnc2c1ncn2[C@@H]1O[C@H](COP(=O)(O)O)[C@@H](O)[C@H]1O | – | – | – | – | yes | yes | yes | weak | yes

Source: PMC7705865 (2020)
